Measured values: PubChem BioAssay AID328 (DTP/NCI, 2004)
Inconclusive results and toxic doses are left out. The calls were made as follows: active = survival T/C of 150% or more; inactive = T/C below 125% in these data.

System: BDF1 mice, P388 leukemia ip, median survival T/C
Assay: NCI In Vivo Anticancer Drug Screen. Data for tumor model P388 Leukemia (intraperitoneal) in B6D2F1 (BDF1) mice
Details: endpoint: median survival time, higher = longer survival
Procedure, shortened: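 Survival ratio, drug arm over vehicle arm, in mice with a transplanted tumour.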

[1] = dose: 50.0 mg/kg/injection, schedule: Q01DX009 (ip), vehicle: saline
[2] = dose: 100.0 mg/kg/injection, schedule: Q04DX003 (ip), vehicle: Klucel (hydroxypropylcellulose) (HPC)
[3] = dose: 200.0 mg/kg/injection, schedule: Q04DX003 (ip), vehicle: Klucel (hydroxypropylcellulose) (HPC)
[4] = dose: 50.0 mg/kg/injection, schedule: Q01DX009 (ip), vehicle: saline with Tween-80
[5] = dose: 100.0 mg/kg/injection, schedule: Q01DX009 (ip), vehicle: saline with Tween-80
[6] = dose: 200.0 mg/kg/injection, schedule: Q01DX009 (ip), vehicle: saline with Tween-80

Measured: T/C

C(=N/Nc1ccccn1)/c1cccnc1
inactive: dose: 25.0 mg/kg/injection, schedule: Q01DX001 (ip), vehicle: saline with Tween-80 100 % of control | dose: 50.0 mg/kg/injection, schedule: Q01DX001 (ip), vehicle: saline with Tween-80 98 % of control | dose: 100.0 mg/kg/injection, schedule: Q01DX001 (ip), vehicle: saline with Tween-80 100 % of control

FC(F)(F)c1ccc2c(c1)N(CCCN1CCN(CCN3CCCCC3)CC1)c1ccccc1S2
inactive: dose: 12.5 mg/kg/injection, schedule: Q01DX009 (ip), vehicle: saline 118 % of control | dose: 25.0 mg/kg/injection, schedule: Q01DX009 (ip), vehicle: saline 115 % of control | [1] 86 % of control

O=C1CCCCCC2CC12 (stereo not given) (tested in a mixture with another compound)
inactive: dose: 100.0 mg/kg/injection, schedule: Q01DX001 (ip), vehicle: other 98 % of control | dose: 200.0 mg/kg/injection, schedule: Q01DX001 (ip), vehicle: other 103 % of control | dose: 400.0 mg/kg/injection, schedule: Q01DX001 (ip), vehicle: other 108 % of control

Cc1cc(C)c(B2OB(c3c(C)cc(C)cc3C)O2)c(C)c1
inactive: dose: 50.0 mg/kg/injection, schedule: Q04DX003 (ip), vehicle: Klucel (hydroxypropylcellulose) (HPC) 95 % of control | [2] 100 % of control | [3] 95 % of control

CCCCCCCCCC(=O)CCCCC
inactive: dose: 100.0 mg/kg/injection, schedule: Q04DX003 (ip), vehicle: other 109 % of control | dose: 200.0 mg/kg/injection, schedule: Q04DX003 (ip), vehicle: other 109 % of control | dose: 400.0 mg/kg/injection, schedule: Q04DX003 (ip), vehicle: other 113 % of control

COc1ccc(-c2oc3cc(OC4OC(C)C(O)C(O)C4O)c(O)c(O)c3c(=O)c2OC2OC(C)C(O)C(O)C2O)cc1 (stereo not given)
inactive: dose: 25.0 mg/kg/injection, schedule: Q01DX009 (ip), vehicle: saline + alcohol 92 % of control | dose: 50.0 mg/kg/injection, schedule: Q01DX009 (ip), vehicle: saline + alcohol 92 % of control | dose: 100.0 mg/kg/injection, schedule: Q01DX009 (ip), vehicle: saline + alcohol 106 % of control

O=[N+]([O-])c1ccc(NCCO)c([N+](=O)[O-])c1
inactive: [4] 101 % of control | [5] 107 % of control | [6] 113 % of control

COc1cc(C=C2C(=O)C=CC2=O)ccc1O
inactive: dose: 0.78 mg/kg/injection, schedule: Q01DX009 (ip), vehicle: saline with Tween-80 116 % of control | dose: 1.56 mg/kg/injection, schedule: Q01DX009 (ip), vehicle: saline with Tween-80 104 % of control | dose: 3.13 mg/kg/injection, schedule: Q01DX009 (ip), vehicle: saline with Tween-80 112 % of control | dose: 6.25 mg/kg/injection, schedule: Q01DX009 (ip), vehicle: saline with Tween-80 110 % of control | dose: 12.5 mg/kg/injection, schedule: Q01DX009 (ip), vehicle: saline with Tween-80 95 % of control

Nc1nc(=O)n(C2CC(O)C(CO)O2)cc1Br (stereo not given)
inactive: [5] 109 % of control | [6] 90 % of control | dose: 400.0 mg/kg/injection, schedule: Q01DX009 (ip), vehicle: saline with Tween-80 100 % of control

O=C(/C=N/O)Nc1cc(Cl)c(Cl)cc1Cl
inactive: [4] 109 % of control | dose: 50.0 mg/kg/injection, schedule: Q04DX003 (ip), vehicle: saline with Tween-80 109 % of control | dose: 75.0 mg/kg/injection, schedule: Q01DX009 (ip), vehicle: saline with Tween-80 113 % of control | [5] 104 % of control | dose: 100.0 mg/kg/injection, schedule: Q04DX003 (ip), vehicle: saline with Tween-80 100 % of control | dose: 150.0 mg/kg/injection, schedule: Q01DX009 (ip), vehicle: saline with Tween-80 118 % of control | dose: 200.0 mg/kg/injection, schedule: Q04DX003 (ip), vehicle: saline with Tween-80 122 % of control

CCOC(=O)C[P+](c1ccccc1)(c1ccccc1)c1ccccc1
inactive: dose: 12.5 mg/kg/injection, schedule: Q04DX003 (ip), vehicle: saline 102 % of control | dose: 25.0 mg/kg/injection, schedule: Q04DX003 (ip), vehicle: saline 102 % of control | dose: 50.0 mg/kg/injection, schedule: Q04DX003 (ip), vehicle: saline 96 % of control

Cc1cc(C)n(-c2nn3nnnc3c3ccccc23)n1
inactive: [1] 95 % of control | dose: 100.0 mg/kg/injection, schedule: Q01DX009 (ip), vehicle: saline 95 % of control | dose: 200.0 mg/kg/injection, schedule: Q01DX009 (ip), vehicle: saline 93 % of control

CCCCCCCCCCC[CH2][Hg][CH2]CCCCCCCCCCC
inactive: [2] 91 % of control | [3] 100 % of control

CCCCCCCCCCCCCCCCOc1ccccn1
inactive: dose: 25.0 mg/kg/injection, schedule: Q01DX009 (ip), vehicle: Klucel (hydroxypropylcellulose) (HPC) 91 % of control | dose: 50.0 mg/kg/injection, schedule: Q01DX009 (ip), vehicle: Klucel (hydroxypropylcellulose) (HPC) 95 % of control | dose: 100.0 mg/kg/injection, schedule: Q01DX009 (ip), vehicle: Klucel (hydroxypropylcellulose) (HPC) 95 % of control | [2] 100 % of control | [3] 104 % of control | dose: 400.0 mg/kg/injection, schedule: Q04DX003 (ip), vehicle: Klucel (hydroxypropylcellulose) (HPC) 122 % of control
